From article PMC6240096, “A hPSC-based platform to discover gene-environment interactions that impact human β-cell and dopamine neuron survival” (Nature Communications, 2018)

Legend:
MIN6 cells = assay: Western blotting of γ-H2A.X and extracellular HMGB1 in MIN6 cells; type: cell-based, mouse; conditions: 2 mM GSH, day 4
Description: To extract intracellular protein, cells were placed on ice, washed twice with ice-cold PBS and lysed immediately with RIPA buffer (Life Technologies, 89900) supplemented with a protease inhibitor cocktail (Life Technologies, 78440). Cell lysates were then sonicated and the soluble fraction was collected after centrifugation. Protein amount was quantified by the BCA protein assay (Life Technologies, 23227). To extract extracellular HMGB1, tissue culture media were collected and concentrated using Afyon SDS-PAGE sample preparation kit (advansta, K-02101-025). 20 μg of total protein for each sample was mixed with loading buffer and incubated for 5 min at 95 °C before being loaded into NuPAGE® Novex® 4–12% […] Protein Gels (Life Technologies, NP0321BOX) for electrophoresis. Separated proteins were transferred to a PVDF membrane (Millipore, IPSN07852) after electrophoresis. The membrane was blocked with 5% non-fat milk in TBST (50 mM Tris–HCl at pH 8.0, 150 mM NaCl, 0.1% Tween 20) followed by overnight incubation with the primary antibody at 4 °C. The following antibodies were used with the dilution ratio noted: rabbit anti-HMGB1 (1:1000, Cell Signaling Technology, #6893), rabbit anti-γ-H2A.X (1:1000, Cell Signaling Technology, #9718), rabbit anti-LC3B (1:1000, Cell Signaling Technology, #3868), mouse anti-GSTT1 (1:1000, GeneTex, GTX109250), rabbit anti-GSTM1 (1:1000, R&D system, MAB6894), mouse anti-GAPDH (1:50000, Abcam, ab8245). A peroxidase conjugated horse anti-mouse IgG secondary antibody (1:20000, Vector Laboratories, PI-2000) or peroxidase conjugated goat anti-Rabbit IgG secondary antibody (1:20000, Vector Laboratories, PI-1000) was used for western blot. ECL signals were developed and detected using the SuperSignal™ West Femto Maximum Sensitivity Substrate (Life Technologies, 34094) and a C-DiGit Chemiluminescent Western Blot Scanner (LI-COR). Uncropped scans of all the blots were shown in Supplementary Fig. 7 in the Supplementary Information.

primary human islets = assay: Primary human islets, INS and propidium iodide staining; type: cell-based; conditions: 2 mM GSH
Description: Fig. 1 A high-content screen identifies propargite as a compound that induces pancreatic β-cell death. a Scheme of pancreatic β-cell differentiation and high-content chemical screen. b Chemical structure of two hit compounds: Propargite and Vacor. c Inhibitory curve and IC50 of propargite or Vacor on INS^+ and INS^− cells (n = 8). d, e Immunocytochemistry analysis (d) and survival rate (e) of H1-derived glucose-responding INS^+ and INS^− cells treated with different doses of propargite (n = 8). Pancreatic β-like cells were stained for INS (green) and all cells were counterstained by DAPI (blue). Scale bars, 100 μm. The survival rate was calculated by dividing the average number of cells in propargite-treated conditions by the average number of cells in the DMSO control. f, g Representative live images (f) and fold-change (g) of INS^w/GFP HES3-derived INS-GFP^+ cells treated with 1.6 μM propargite or DMSO control at different time points compared to initial time 0 (n = 3). Scale bars, 100 μm. h, i, j Representative images (h) and cell survival rate (i) or cell death rate (j) of DMSO or propargite-treated human primary islets (n = 3). Pancreatic β-cells were stained with the INS antibody (green) and dead cells were stained with propidium iodide (PI) (red). Scale bars, 200 μm. Scale bars for higher resolution (Zoom) images, […]. Pancreatic β-cell death rate was calculated by defining percentages of INS^+ PI^+ cells in INS^+ cells, and non-β-cell death rate was calculated by percentages of INS^−PI^+ cells in INS^− cells.

INS+ cells = assay: High-content survival / inhibitory curve, hESC-derived INS+ cells; type: cell-based, human
Method: (§1) The screening library ToxCast Phase I was obtained from the US Environmental Protection Agency, which contains approximately 2000 compounds dissolved at 20 mM in DMSO. The H1 hESC-derived population was dissociated with Accutase and re-plated onto laminin V-coated 384-well plates at 5000 cells per well. After 16 h incubation, cells were treated with individual compounds from the ToxCast library with four concentrations, including 20 nM, 200 nM, 2 μM, and 20 μM, for each compound. After 4 days, the cells were fixed with 10% formalin and stained with an INS antibody and DAPI, followed by automatic imaging and analysis by ImageXpress^MICRO Automated High-Content Analysis System (Molecular Devices) to count the numbers of INS^+ and INS^− cells. The survival rate was calculated by dividing the numbers of INS^+ cells in compound treated conditions by the average number of INS^+ cells in DMSO-treated conditions. The compounds that induced more than 60% reduction of the survival rate of INS^+ cells and less than 20% of the INS^− cells were chosen as primary hits. Hit compounds were then selected and validated in three additional independent experiments using the same protocol as the primary screening.
hESCs-derived INS^+ cells, MSCs[43], neurons, and hepatocytes[44] were derived based on the reported protocols and re-plated on 96-well plates with Accutase digestion. Cardiomyocytes (CMs) were differentiated from H9-MYH6: mCherry reporter line, based on the reported protocol. After overnight incubation, cells were treated with DMSO or different doses of hit compounds for 4 days. After fixation, the cells were stained with markers for each cell type. DAPI was used to stain cell nuclei. Plates were analyzed by ImageXpress^MICRO Automated High-Content Analysis System.

INS- cells = assay: High-content survival / inhibitory curve, hESC-derived INS- cells; type: cell-based, human; conditions: Homo sapiens, 96 h; H1 hESC-derived, β-cell differentiation protocol 1, 4 days treatment, n = 8
Method: as §1, with “Hit compounds were then selected and validated in three additional independent experiments using the same protocol as the primary screening.” left out
hESCs-derived INS^+ cells, MSCs[43], neurons, and hepatocytes[44] were derived based on the reported protocols and re-plated on 96-well plates with Accutase digestion. […] Plates were analyzed by ImageXpress^MICRO Automated High-Content Analysis System.

N[C@@H](CCC(=O)N[C@@H](CS)C(=O)NCC(=O)O)C(=O)O [GSH, glutathione, reference compound]
rescue of propargite-induced DNA damage (γ-H2A.X expression) (MIN6 cells): fully rescued
rescue of propargite-induced necrosis (extracellular HMGB1) (MIN6 cells): partially rescued
rescue of propargite-induced β-cell-specific death in human islets (primary human islets): rescued
rescue of survival rate of INS+ cells after propargite treatment (INS+ cells; 2 mM GSH): fully rescued

O=C(NCc1cccnc1)Nc1ccc([N+](=O)[O-])cc1 [Vacor, N-3 pyridylmethyl-N′’-4-nitrophenyl urea]
IC50 (INS+ cells; Homo sapiens, 96 h, read-out: IC50 for INS+ cells): 4.89 µM
IC50 (INS- cells): 61.6 µM
